From Sander's compilation of Henry's law constants (doi:10.1007/bf02268351)

Test: Henry solubility constant Hcp at 298.15 K (mol/(m3 Pa))
Conditions: reference: Kolb et al. (1992)

Compound | Henry solubility constant Hcp
CC(Cl)(Cl)Cl [1,1,1-trichloroethane] | 0.00079
Cc1ccccc1C [1,2-dimethylbenzene] | 0.0014
CC(C)O [2-propanol] | 0.79
CC(=O)CC(C)C [4-methyl-2-pentanone] | 0.043
CCCCOC(C)=O [butyl ethanoate] | 0.023
C1CCCCC1 [cyclohexane] | 5.4e-05
CCOC(C)=O [ethyl ethanoate] | 0.044
CCCCCC [hexane] | 0.00024
Cc1ccccc1 [methylbenzene] | 0.0016
ClC(Cl)=C(Cl)Cl [tetrachloroethene] | 0.00081
